According to paper PMC7284125, “Identification of annotated bioactive molecules that impair motility of the blood fluke Schistosoma mansoni” (International Journal for Parasitology: Drugs and Drug …, 2020):
Read-outs that look alike come from different tables or passages of the source.

Key:
[1] = tested on: S. mansoni adult worms; assay: Motility assay on adult parasites (pixel displacement, relative to DMSO control); type: cell-based, Schistosoma mansoni; settings: 10 μM; for Fractional motility: secondary screen; for motility phenotype in words: adults, long-term after washout
How it was run: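 Unpaired adult worms from mice 6 weeks post-infection kept in OPTI-MEM with 5% dialyzed FBS and exposed to compounds at 1 and 10 μM for 24 h. Motility filmed 1 min at 10 frames/s, quantified by pixel displacement versus DMSO-treated worms; recovery followed up to five days after washout.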

[2] = tested on: S. mansoni schistosomulae; assay: Motility assay on schistosomulae (pixel displacement, relative to DMSO control); type: cell-based, Schistosoma mansoni; settings: for activity at 1 µM: Schistosoma mansoni, read-out: Fractional motility; for motility in extended assay with reduced incubation times, in words: three-day old schistosomulae, incubation 1 h, 3 h, 6 h
How it was run: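 Motility was scored by pixel displacement from 1-min videos (10 frames/s) and compared with DMSO controls. Schistosomulae (200/well, Opti-MEM, 5% dialyzed FBS, no antibiotics) received compound at 1 or 10 μM for 24 h; selected hits were also followed at 1, 3, 6 and 12 h.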

[3] = tested on: naïve Glo HEK293 cells (no receptor); assay: cAMP luminescence (GloSensor) assay on naïve Glo HEK293 cells (no receptor); type: cell-based, human; settings: for inhibition of EPN-evoked luminescence: 50 μM EPN
Experimental: The SmGPR2 sequence previously identified ([El-Shehabi and Ribeiro, 2010]) was codon optimized for mammalian expression and subcloned in the vector pCI-neo (Addgene, USA) using the XbaI and NotI restriction enzymes. A FLAG fusion tag ([…]) was introduced at the N-terminal end of the receptor sequence. Stable transfection of HEK293 cells (ATCC; CRL-1573) was performed using the X-tremeGENE 9 DNA transfection reagent (Sigma Aldrich). Cells were then cultured at 37 °C, 5% CO2 in Opti-MEM supplemented with 5% FBS and maintained in 400 μg/mL G418 (Sigma Aldrich) for selection of transformants. […] All cell lines expressing S. mansoni GPCRs were then transfected with the GloSensor encoding plasmid p22F (Promega) and media was supplemented with 100 μg/mL hygromycin for stable expression (ThermoFisher).
Adherent HEK293 cells were seeded at a density of 5 x 10^4 cells/well (96-well plate) in Opti-MEM without FBS or antibiotics and incubated overnight at 37 °C and 5% CO2 prior to the assay. In place of the media, 100 μL HBSS supplemented with 0.1% bovine serum albumin (BSA), 500 μM 3-isobutyl-1-methylxanthine (IBMX, Sigma Aldrich), 20 mM HEPES (pH 7.4) and 1 mg/mL D-luciferin (Goldbio) was added to each well. After a 2 h incubation period at room temperature, luminescence background was recorded, and compounds and control ligands were added at 10X concentration. Immediately after compound addition, luminescence was read over a 45 min period to detect compounds stimulating cAMP release through receptor activation. […] For each assay, luminescence responses were recorded in triplicate and repeated with four independant cell batches. Compounds were also added to naïve Glo HEK293 cells (no receptor) and the robustness of the assay was calculated as: Z^'=1−3×(SDmax+SDmin)/Meanmax−Meanmin with max and min referring respectively to cells expressing GPCRs and Glo (no receptor) cells. Cellular viability was assessed using a CellTiter Glo 2.0 kit (Promega). Glo cells were exposed to 10 μM of each hit compound for 3 h in Opti-MEM at 37 °C, 5% CO2. An equimolar concentration of tamoxifen (Sigma Aldrich) was used as a positive control. 2X cell lysis media was then added and end-point luminescence recorded after a 10 min stabilization time.

[4] = tested on: S. mansoni schistosomulae; assay: Phenotypic primary screen assay on schistosomulae (phenotype; viability by methylene blue dye exclusion); type: cell-based, Schistosoma mansoni
How it was run: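 Parasites lacking contraction/relaxation cycles and showing dark internal granulations counted as dead. Movement and body shape were compared with DMSO-treated controls under a stereo microscope at 24 h and at five days of exposure. Larvae came from infected snails shed under light for 2 h at 32 °C.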

[5] = tested on: S. mansoni schistosomulae; assay: as above; type: cell-based; settings: Schistosoma mansoni
[6] = target: SmD2 (Schistosoma mansoni, UniProt G4LUJ1); assay: cell-based; type: cell-based
[7] = target: Sm5HTR (Schistosoma mansoni, UniProt G4V5G4); assay: cAMP luminescence (GloSensor) assay, HEK293 cells expressing Sm5HTR; type: cell-based, S. mansoni; settings: compound incubation followed by 50 μM 5-HT
[8] = 120 h, schistosomulae, secondary screen, 24h exposure, read at D5, 1 µM
[9] = schistosomulae, secondary screen, 24h exposure, read at D1, 1 µM
[10] = schistosomulae, secondary screen, 24h exposure, read at D1, 10 µM
[11] = schistosomulae, secondary screen, 24h exposure, read at D5, 10 µM
[12] = three-day-old schistosomulae, 10 μM, 24 h, estimated 5 days post compound exposure
[13] = three-day-old schistosomulae, 10 μM, 24 h, calculated 5 days post compound exposure, read-out: Viability (%)
[14] = schistosomulae, 1h exposure, read at D1, 10 µM
[15] = schistosomulae, 1h exposure, read at D5, 10 µM
[16] = schistosomulae, 3h exposure, read at D1, 10 µM
[17] = schistosomulae, 3h exposure, read at D5, 10 µM
[18] = schistosomulae, 6h exposure, read at D1, 10 µM
[19] = schistosomulae, 6h exposure, read at D5, 10 µM
[20] = inhibition of EPN-evoked luminescence, SmD2 expressing HEK293 cells, read-out: IC50
[21] = NPS-2143 and analogs, 24h, D1, 10 µM
[22] = NPS-2143 and analogs, 24h, D5, 10 µM
[23] = 120 h, NPS-2143 and analogs, 24h, D5, 1 µM
[24] = NPS-2143 and analogs, 24h, D1, 1 µM

Chain of SmD2 (G4LUJ1 entry or part of it): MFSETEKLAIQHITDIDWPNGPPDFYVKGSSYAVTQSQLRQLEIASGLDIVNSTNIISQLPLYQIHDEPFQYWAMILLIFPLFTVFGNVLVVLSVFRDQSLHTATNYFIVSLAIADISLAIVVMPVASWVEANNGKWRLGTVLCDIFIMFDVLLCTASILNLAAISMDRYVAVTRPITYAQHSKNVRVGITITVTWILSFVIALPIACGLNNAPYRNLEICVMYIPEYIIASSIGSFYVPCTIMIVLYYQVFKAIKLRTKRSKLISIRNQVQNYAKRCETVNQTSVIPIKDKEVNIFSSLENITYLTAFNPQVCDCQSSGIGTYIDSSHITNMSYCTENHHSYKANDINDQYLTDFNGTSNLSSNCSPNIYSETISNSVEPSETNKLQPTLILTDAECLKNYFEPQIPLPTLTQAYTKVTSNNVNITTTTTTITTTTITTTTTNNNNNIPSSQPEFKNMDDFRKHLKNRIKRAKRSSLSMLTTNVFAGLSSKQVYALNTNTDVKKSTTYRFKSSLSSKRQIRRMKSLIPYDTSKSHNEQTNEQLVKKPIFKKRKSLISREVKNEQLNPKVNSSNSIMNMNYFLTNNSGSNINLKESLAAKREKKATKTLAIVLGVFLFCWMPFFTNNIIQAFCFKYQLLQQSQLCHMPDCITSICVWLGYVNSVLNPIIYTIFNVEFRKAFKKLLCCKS
Chain of Sm5HTR (G4V5G4 entry or part of it): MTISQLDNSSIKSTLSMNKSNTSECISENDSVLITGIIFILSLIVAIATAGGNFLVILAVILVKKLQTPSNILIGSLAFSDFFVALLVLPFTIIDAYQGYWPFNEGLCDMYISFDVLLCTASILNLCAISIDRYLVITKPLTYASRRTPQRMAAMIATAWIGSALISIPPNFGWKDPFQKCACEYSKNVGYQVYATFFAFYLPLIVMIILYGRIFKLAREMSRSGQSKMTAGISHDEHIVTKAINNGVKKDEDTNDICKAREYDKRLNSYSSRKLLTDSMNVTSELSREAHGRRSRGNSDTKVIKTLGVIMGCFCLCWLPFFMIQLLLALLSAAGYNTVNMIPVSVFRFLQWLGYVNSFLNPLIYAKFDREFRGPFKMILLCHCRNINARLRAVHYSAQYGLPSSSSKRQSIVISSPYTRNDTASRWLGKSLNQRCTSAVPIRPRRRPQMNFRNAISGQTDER

| Compound | Fractional motility ([1]; D1, Female adult worms) | Fractional motility ([1]; D1, Male adult worms) | Fractional motility ([1]; D5, Female adult worms) | Fractional motility ([1]; D5, Male adult worms) | activity at 1 µM [2, 8] [%] | activity at 1 µM [2, 9] [%] | Fractional motility [2, 10] | Fractional motility [2, 11] | Phenotype [4, 12] | viability at 10 µM [5, 13] [%] | Fractional motility [2, 14] | Fractional motility [2, 15] | Fractional motility [2, 16] | Fractional motility [2, 17] | Fractional motility [2, 18] | Fractional motility [2, 19] | IC50 [6, 20] [µM] | further results |
| --- | --- | --- | --- | --- | --- | --- | --- | --- | --- | --- | --- | --- | --- | --- | --- | --- | --- | --- |
| O=C1CCc2ccc(OCCCCN3CCN(c4cccc(Cl)c4Cl)CC3)cc2N1 [Aripiprazole] | 0.19 | 0.50 | -0.80 | -0.14 | -61 | -48 | -0.15 | -0.56 | granulated | 96.5 |  |  |  |  |  |  |  | inhibition of EPN-evoked luminescence [3]: ≥ 50% |
| CNCC[C@H](Oc1cccc2ccccc12)c1cccs1 [Duloxetine] | 0.62 | 4.31 | 0.30 | 0.54 |  |  |  |  |  |  |  |  |  |  |  |  |  | activity at 1 µM ([2]; 120 h): -13%; inhibition of EPN-evoked luminescence [3]: ≥ 50%; Phenotype [4]: granulated; viability at 10 µM [5]: 90%; IC50 [6]: 5.95 µM; inhibition at 10 µM ([6]; HEK293, read-out: inhibition of EPN-evoked luminescence): ≥ 50% |
| CNCCc1ccc(O)c(O)c1 [EPN, epinine] |  |  |  |  |  |  |  |  |  |  |  |  |  |  |  |  |  | EC50 ([6]; luminescent cAMP signal, agonist): 2.52 ± 1.12 µM |
| O=[N+]([O-])c1ccc2c(c1)S(=O)(=O)C=C2 [Stattic] | 0.39 | -0.03 | -0.90 | 0.23 |  |  | 1.23 | -0.96 | big, dark, granulated |  | -0.71 | -0.69 | -0.97 | -1.00 | -0.91 | -0.99 |  | Fractional motility [2, 9]: 0.84; Fractional motility ([2]; schistosomulae, secondary screen, 24h exposure, read at D5, 1 µM): -0.47; effect on luminescence evoked by forskolin ([3]; 20 μM forskolin): significant decrease in luminescence; Viability (%) ([4]; three-day-old schistosomulae, 10 μM, 24 h, calculated 5 days post compound exposure): 0%; inhibition of Sm5HTR 5-HT-evoked signals [7]: ≥ 50% |
| CNCc1ccc(-c2cc(-c3nc(-c4ccc(S(=O)(=O)C(C)C)cc4)cnc3N)on2)cc1 [VE-822] | -0.46 | -0.30 | -0.67 | -0.66 | -14 | -37 | -0.68 | -0.83 | dark, granulated | 11.5 | -0.26 | -0.63 | -0.72 | -0.69 | 3.57 | 0.02 |  | motility phenotype in words [1]: Significant hypomotility; motility in extended assay with reduced incubation times, in words [2]: did not exhibit a significant change before the 24 hr incubation cut-off |
| Cc1ccc(Sc2ccccc2N2CCNCC2)c(C)c1 [Vortioxetine] | 2.64 | 2.15 | 0.24 | 1.01 |  |  |  |  | big, granulated | 10 |  |  |  |  |  |  | 3.68 | activity at 1 µM ([2]; 120 h, Selleckchem customized library secondary screen, 24h, D5, 1 µM): 60%; Fractional motility ([2]; Selleckchem customized library secondary screen, 24h, D1, 10 µM): 55.99; Fractional motility ([2]; Selleckchem customized library secondary screen, 24h, D5, 10 µM): -0.42; motility phenotype in words ([2]; schistosomulae, after 24 h exposure): high levels of hypermotility; inhibition of EPN-evoked luminescence [3]: ≥ 50%; effect on viability of schistosomulae in words ([4]; 24 h incubation, five days): schistosomulicidal; inhibition at 10 µM ([6]; HEK293, SmD2 cells, 10 μM compound, 50 μM EPN, read-out: inhibition of EPN-evoked luminescence): ≥ 50% |
| C=CC(=O)Nc1cccc(Oc2nc(Nc3ccc(N4CCN(C)CC4)cc3OC)ncc2Cl)c1 [WZ4002] | 0.66 | 0.64 | -0.61 | 1.33 | 51 | -58 |  | -0.62 | dark, granulated | 7 |  |  |  |  |  |  |  | motility phenotype in words [1]: hypermotility in male worms and hypomotility in females |
| COCCn1c2c([n+](Cc3cnccn3)c1C)C(=O)c1ccccc1C2=O [YM155] | 0.22 | 1.90 | -0.79 | 0.70 | -82 | -73 | -0.91 | -1.00 | big, granulated | 40 | -0.48 | -0.85 | -0.70 | -0.96 | 1.86 | -1.00 |  | motility in extended assay with reduced incubation times, in words [2]: significant and sustained hypomotility |
| O=C1Cc2cc(CCN3CCN(c4nsc5ccccc45)CC3)c(Cl)cc2N1 [Ziprasidone] | 1.30 | 0.47 | -0.12 | 0.73 | -73 | 0.0588 | 10.63 | -1.00 | dark, granulated | 2.5 | 9.35 | -0.16 | 8.26 | -0.06 | 0.49 | 0.31 |  | hypermotility relative to control ([2]; schistosomulae, after 24 h incubation): 11 ± 2 fold; motility phenotype in words ([2]; schistosomulae, long-term, five days after compound washout): all parasites became paralyzed; motility in extended assay with reduced incubation times, in words [2]: did not exhibit a significant change before the 24 hr incubation cut-off |
| COc1ccc(CCNCC(O)COc2ccccc2C2CC3CCC2C3)cc1OC (centres unmarked) [compound 28] |  |  |  |  |  |  |  |  |  |  |  |  |  |  |  |  | 0.0272 | Fractional motility [2, 21]: -1.00; Fractional motility [2, 22]: -1.00; activity at 1 µM [2, 23]: -67%; activity at 1 µM [2, 24]: -69% |
| CC(=O)Nc1ccc(CCNCC(O)COc2cccc3ccccc23)cc1 (centres unmarked) [compound 31] |  |  |  |  |  |  |  |  |  |  |  |  |  |  |  |  | 0.0217 | Fractional motility [2, 21]: -0.82; Fractional motility [2, 22]: -0.79; activity at 1 µM [2, 23]: -34%; activity at 1 µM [2, 24]: -69% |
| OC(CNCCc1ccccc1)COc1ccccc1C1CCCCC1 (centres unmarked) [compound 35] |  |  |  |  |  |  |  |  |  |  |  |  |  |  |  |  | 0.0123 | Fractional motility [2, 21]: -0.99 |
| O=C(CCCN1CCC2(CC1)C(=O)NCN2c1ccccc1)c1ccc(F)cc1 [spiperone] |  |  |  |  |  |  |  |  |  |  |  |  |  |  |  |  | 1.51 |  |
